Source: patent US7432257B2, “Piperdinyl-phenoxazine and phenothiazine derivatives as δ-opioid modulators” (Janssen Pharmaceutica N.V., priority 2005, dated 2008)

Assays:
[1] = molecular target: T1, delta opioid receptor (Rattus norvegicus, UniProt P33533); experiment: Rat Brain Delta Opioid Receptor Binding Assay; conditions: rat forebrain membranes; [3H]DPDPE or [3H]naltrindole, 25° C., 2.5 h
T1 construct: from tissue; host or cells: Forebrain of male Wistar rats, particulate membrane preparation
T1 sequence (P33533 whole entry): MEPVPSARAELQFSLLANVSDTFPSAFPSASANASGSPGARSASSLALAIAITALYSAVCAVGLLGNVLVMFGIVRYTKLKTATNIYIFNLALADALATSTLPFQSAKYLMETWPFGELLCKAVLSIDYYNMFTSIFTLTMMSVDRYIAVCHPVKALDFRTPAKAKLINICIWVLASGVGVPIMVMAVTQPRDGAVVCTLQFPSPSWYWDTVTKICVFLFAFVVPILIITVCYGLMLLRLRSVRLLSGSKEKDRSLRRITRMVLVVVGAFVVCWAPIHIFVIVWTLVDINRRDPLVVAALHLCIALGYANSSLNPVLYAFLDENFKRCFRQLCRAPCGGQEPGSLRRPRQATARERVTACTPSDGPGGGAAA

[2] = molecular target: T2, mu opioid receptor (Rattus norvegicus, UniProt P33535); experiment: Rat Brain Mu Opioid Receptor Binding Assay; conditions: rat forebrain membranes; [3H]DAMGO, 25° C., 2.5 h
T2 construct: from tissue; host or cells: Forebrain of male Wistar rats, particulate membrane preparation
T2 sequence (P33535 whole entry): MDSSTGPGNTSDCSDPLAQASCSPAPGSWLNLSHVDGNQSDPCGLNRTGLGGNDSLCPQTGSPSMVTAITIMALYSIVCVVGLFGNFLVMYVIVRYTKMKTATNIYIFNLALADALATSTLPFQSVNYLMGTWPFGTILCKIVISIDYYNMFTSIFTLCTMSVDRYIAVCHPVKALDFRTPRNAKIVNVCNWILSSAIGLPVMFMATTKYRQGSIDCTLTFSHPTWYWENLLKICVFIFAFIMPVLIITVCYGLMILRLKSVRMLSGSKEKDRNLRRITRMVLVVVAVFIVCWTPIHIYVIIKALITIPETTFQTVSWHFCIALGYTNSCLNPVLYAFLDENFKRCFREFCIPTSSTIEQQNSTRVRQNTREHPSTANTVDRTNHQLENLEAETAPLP

[3] = molecular target: T3, delta opioid receptor (NG108-15 cell membranes) (Mus musculus, UniProt P32300); experiment: [35S]GTPγS Binding Assay in NG108-15 Cell Membranes (Delta Opioid); type: biochemical
T3 construct: NG108-15 cell membranes were purchased from Applied Cell Sciences (Rockville, Md.); host or cells: NG108-15 cell membranes (purchased)
T3 sequence (P32300 whole entry): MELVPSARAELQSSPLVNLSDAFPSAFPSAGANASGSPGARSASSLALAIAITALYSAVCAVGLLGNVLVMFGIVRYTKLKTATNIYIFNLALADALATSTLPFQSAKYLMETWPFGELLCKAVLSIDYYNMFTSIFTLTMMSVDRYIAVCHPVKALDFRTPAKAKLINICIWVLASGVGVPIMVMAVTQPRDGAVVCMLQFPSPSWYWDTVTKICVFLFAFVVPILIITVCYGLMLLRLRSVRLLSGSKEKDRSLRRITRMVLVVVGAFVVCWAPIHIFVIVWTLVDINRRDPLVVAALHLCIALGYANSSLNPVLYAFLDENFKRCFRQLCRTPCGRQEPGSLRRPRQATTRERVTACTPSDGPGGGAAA

[4] = molecular target: hMOR (CHO-hMOR cell membranes) (Homo sapiens, UniProt P35372); experiment: [35S]GTPγS Binding Assays in CHO-hMOR Cell Membranes; type: biochemical; conditions: read-out: mu GTPγS EC50
hMOR (CHO-hMOR cell membranes), sequence (P35372 whole entry): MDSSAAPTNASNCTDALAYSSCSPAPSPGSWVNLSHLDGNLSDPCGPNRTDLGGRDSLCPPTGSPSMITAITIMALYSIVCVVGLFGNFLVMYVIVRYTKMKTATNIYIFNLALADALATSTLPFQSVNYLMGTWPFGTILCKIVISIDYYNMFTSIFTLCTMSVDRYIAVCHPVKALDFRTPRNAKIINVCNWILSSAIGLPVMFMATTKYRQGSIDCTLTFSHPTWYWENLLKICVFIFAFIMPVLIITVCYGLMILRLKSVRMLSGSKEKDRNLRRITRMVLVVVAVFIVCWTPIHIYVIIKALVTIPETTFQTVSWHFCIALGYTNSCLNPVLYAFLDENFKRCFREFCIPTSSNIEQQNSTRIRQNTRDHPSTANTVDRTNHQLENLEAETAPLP

Molecule CC(=O)Nc1ccccc1-c1ccc2c(c1)Oc1ccccc1N2C1CCN(Cc2ncc[nH]2)CC1 [Compound 7j, N-(2-{10-[1-(1H-Imidazol-2-ylmethyl)-piperidin-4-yl]-10H-phenoxazin-3-yl}-phenyl)-acetamide] has a Ki [1] of 249 nM.
Work on c1ccc(CN2CCC(N3c4ccccc4Oc4cc(-c5nnn[nH]5)ccc43)CC2)nc1 [Compound 10a, 10-(1-Pyridin-2-ylmethyl-piperidin-4-yl)-3-(1H-tetrazol-5-yl)-10H-phenoxazine] yielded a Ki [1] of 227 nM.
N#Cc1ccc2c(c1)Oc1ccccc1N2C1CCNCC1 [Compound 11a, 10-Piperidin-4-yl-10H-phenoxazine-3-carbonitrile] was tested, and the Ki [1] was 436 nM, the Ki [2] was 5820 nM and the EC50 [3] was 1930 nM. The EC50 [4] was > 10000 nM.
In the case of c1ccc(CN2CCC(N3c4ccccc4Sc4cc(-c5cccnc5)ccc43)CC2)nc1 [Compound 2f, 3-Pyridin-3-yl-10-(1-pyridin-2-ylmethyl-piperidin-4-yl)-10H-phenothiazine], the Ki [1] is reported as 365 nM and the Ki [2] is reported as 2850 nM.
With O=C(c1ccc2c(c1)Oc1ccccc1N2C1CCN(Cc2ccoc2)CC1)N1CC[C@H](O)C1 [Compound 16r, [10-(1-Furan-3-ylmethyl-piperidin-4-yl)-10H-phenoxazin-3-yl]-(3-(S)-Hydroxypyrrolidin-1-yl)-methanone] the Ki [1] was 189 nM.
In the case of CCN(CC)C(=O)c1ccc2c(c1)Oc1ccccc1N2C1CCN(Cc2nccs2)CC1 [Compound 9r, 10-(1-Thiazol-2-ylmethyl-piperidin-4-yl)-10H-phenoxazine-3-carboxylic acid diethylamide], the Ki [1] is reported as 300 nM.
In the case of O=C(c1ccc2c(c1)Oc1ccccc1N2C1CCN(Cc2ccccc2)CC1)N1CC[C@H](O)C1 [Compound 13r, [10-(1-Benzyl-piperidin-4-yl)-10H-phenoxazin-3-yl]-(3-(S)-Hydroxypyrrolidin-1-yl)-methanone], the Ki [1] is reported as 465 nM.
In the case of CCNC(=O)c1ccc2c(c1)Sc1ccccc1N2C1CCN(Cc2cccs2)CC1 [Compound 4m, 10-(1-Thiophen-2-ylmethyl-piperidin-4-yl)-10H-phenothiazine-3-carboxylic acid ethylamide], the Ki [1] is reported as 784 nM.
c1ccc(CN2CCC(N3c4ccccc4Oc4cc(-c5ccncc5)ccc43)CC2)nc1 [Compound 5k, 3-Pyridin-4-yl-10-(1-pyridin-2-ylmethyl-piperidin-4-yl)-10H-phenoxazine] was tested, and the Ki [1] was 1200 nM.
With CC(=O)Nc1ccccc1-c1ccc2c(c1)Sc1ccccc1N2C1CCN(Cc2ccccn2)CC1 [Compound 6g, N-{2-[10-(1-Pyridin-2-ylmethyl-piperidin-4-yl)-10H-phenothiazin-3-yl]-phenyl}-acetamide] the Ki [1] was 255 nM and the Ki [2] was 837 nM.
Work on COc1cccc2c1Oc1cc(C(=O)N(C)C)ccc1N2C1CCN(Cc2ccccc2)CC1 [Compound 5d, 10-(1-Benzyl-piperidin-4-yl)-6-methoxy-10H-phenoxazine-3-carboxylic acid dimethylamide] yielded a Ki [1] of 374 nM.
COc1cccc2c1Oc1cc(-c3ccncc3)ccc1N2C1CCNCC1 (single isomer, unassigned) [Compound 5p, 6-Methoxy-10-piperidin-4-yl-3-pyridin-4-yl-10H-phenoxazine] showed a Ki [1] of 589 nM.
CC(=O)Nc1ccccc1-c1ccc2c(c1)Oc1ccccc1N2C1CCN(Cc2ccoc2)CC1 [Compound 3j, N-{2-[10-(1-Furan-3-ylmethyl-piperidin-4-yl)-10H-phenoxazin-3-yl]-phenyl}-acetamide] gave a Ki [1] of 2280 nM.
Molecule Oc1cccc2c1Oc1cc(-c3ccncc3)ccc1N2C1CCNCC1 (single isomer, unassigned) [Compound 4p, 10-Piperidin-4-yl-7-pyridin-4-yl-10H-phenoxazin-4-ol] has a Ki [1] of 535 nM.
Work on c1ccc2c(c1)Oc1cc(-c3nnn[nH]3)ccc1N2C1CCN(Cc2ncc[nH]2)CC1 [Compound 7a, 10-[1-(1H-Imidazol-2-ylmethyl)-piperidin-4-yl]-3-(1H-tetrazol-5-yl)-10H-phenoxazine] yielded a Ki [1] of 655 nM and a Ki [2] of 2770 nM.
Work on CC(=O)Nc1ccccc1-c1ccc2c(c1)Oc1ccccc1N2C1CCN(Cc2ccccc2)CC1 [Compound 5h, N-{2-[10-(1-Benzyl-piperidin-4-yl)-10H-phenoxazin-3-yl]-phenyl}-acetamide] yielded a Ki [1] of 400 nM and a Ki [2] of 3320 nM.
Molecule CC(=O)Nc1ccccc1-c1ccc2c(c1)Oc1ccccc1N2C1CCN(Cc2ccccn2)CC1 [Compound 5j, N-{2-[10-(1-Pyridin-2-ylmethyl-piperidin-4-yl)-10H-phenoxazin-3-yl]-phenyl}-acetamide] has a Ki [1] of 576 nM.
Work on CCN(CC)C(=O)c1ccc2c(c1)Oc1ccccc1N2C1CCN(Cc2ccoc2)CC1 [Compound 10r, 10-(1-Furan-3-ylmethyl-piperidin-4-yl)-10H-phenoxazine-3-carboxylic acid diethylamide] yielded a Ki [1] of 655 nM.
For NC(=O)c1ccc2c(c1)Oc1ccccc1N2C1CCNCC1 [Compound 12a, 10-Piperidin-4-yl-10H-phenoxazine-3-carboxylic Acid amide], the Ki [1] was 682 nM, the Ki [2] was 1240 nM and the EC50 [3] was 9250 nM. The EC50 [4] was > 10000 nM.
Work on O=C(c1ccc2c(c1)Oc1ccccc1N2C1CCN(Cc2ccccn2)CC1)N1CC[C@H](O)C1 [Compound 15r, (3-(S)-Hydroxypyrrolidin-1-yl)-[10-(1-pyridin-2-ylmethyl-piperidin-4-yl)-10H-phenoxazin-3-yl]-methanone] yielded a Ki [1] of 203 nM.
